Test results: patent US20030125234A1, “Alteration of protein stability” (priority 2001, published 2003)
Entries after “also recorded” stand apart in the source; their conditions may differ.

How the values were obtained:
Assay type in all cases: biochemical
[1] = target: T1, porcine somatotropin (pST) (Sus scrofa, UniProt P01248); assay: Porcine somatotropin aggregation (turbidity at 360 nm) with PEG 8000; conditions: pST 1.27 mg/mL, 60° C., standard deviation in parenthesis
T1 construct: purchased Pfizer, Inc., Groton, Conn., USA (provided, not bought)
T1 sequence (P01248 27-216): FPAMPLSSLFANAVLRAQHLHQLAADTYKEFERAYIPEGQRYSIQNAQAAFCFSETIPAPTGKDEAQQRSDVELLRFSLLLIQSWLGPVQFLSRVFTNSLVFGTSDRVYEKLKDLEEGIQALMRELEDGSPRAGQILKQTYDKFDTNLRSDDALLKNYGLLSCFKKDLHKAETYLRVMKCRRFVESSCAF
Description: (§1) Bovine insulin [Sigma, St. Louis, Mo., USA] was dissolved in phosphate saline (PBS) (50 mM sodium biphosphate, 100 mM sodium chloride), pH 7.0, bovine alpha-lactalbumin [Sigma] in 50 mM sodium phosphate, 100 mM sodium chloride and 2 mM EDTA, pH 6.2, chicken egg white lysozyme [Sigma] in 100 mM Tris, 1 mM EDTA, pH 8.2, human acidic fibroblast growth factor (FGF-1) in 6.2 mM sodium biphosphate, 120 mM sodium chloride, pH 7.2, porcine somatotropin (pST) [provided by Pfizer, Inc., Groton, Conn., USA] in 10 mM phosphate, pH 6. 1, human apolactoferrin (HLF) [Sigma] in 20 mM HEPES, 154 mM NaCl, pH 7.4, porcine heart citrate synthase (CS) in 40 mM HEPES, 50 mM KCl, 10 mM (NH4)2SO4 mM potassium acetate, pH 7.8, and yeast alcohol dehydrogenase (ADH) [Sigma] in pH 7.0 PBS. Selection of buffer solutions was based on an extensive series of preliminary studies to obtain appropriate insolubilization kinetics as described below.
(§2) Copper O-phenanthroline (1,10-phenanthroline) was prepared by mixing copper sulfate hexahydrate [Fisher] and o-phenanthroline [Sigma] in a 1:2 ratio. 1 M Dithiothreitol (DTT) was prepared at pH 7.0 PBS. Polyethylene glycol (M.W. 8000, Union Carbide, Danbury, Conn., USA) (PEG) was prepared at 20 mg/mL in 10 mM phosphate, pH 6.1.
(§3) The following compounds were obtained from Sigma and used without further purification: oxalic acid, sodium malonate, succinic acid, glutaric acid, adipic acid, pimelic acid, suberic acid, azelaic acid, guanidine hydrochloride, ammonium formate, beta-alanine, 4-aminobutyric acid, 5-aminovaleric acid, 6-aminocaproic acid, 7-aminoheptanoic acid, hydrazine, ethylenediamine, 1,3-diaminopropane, 1,4-diaminobutane, 1,5-diaminopentane, 1,6-diaminohexane, 1,7-diaminoheptane, Glu-Glu, Glu-Lys, Lys-Lys, diglycine, triglycine, tetraglycine, pentaglycine, and hexaglycine. […] Triglycine and tetraglycine were dissolved in pH 8.6 PBS, while pentaglycine and hexaglycine were dissolved in pH 10.6 PBS.
(§4) Each was either dissolved in pH 7.0 PBS, or pH 6.1 10 mM phosphate, and adjusted to the same pH.
(§5) Protein aggregation was monitored for 1 hour at 360 nm using an HP8453 UV-visible spectrophotometer system [Hewlett Packard, Germany]. […] Insulin (0.25 mg/mL (4.39E-5 M)) aggregation was monitored at 25° C. after addition of potential inhibitors and 20 μL of 1 M DTT (1.27E-4 M). Alpha-lactabumin (0.4 mg/mL (2.82E-5 M)) aggregation was monitored at 37° C. in the presence of 20 μL of 1 M DTT (1.27E-4 M). Lysozyme (0.4 mg/mL (2.86E-5 M)) aggregation was monitored at 25° C. in the presence of 20 μL of 1 M DTT (1.27E-4 M). FGF-1 (50 μg/mL (3.12E-6 M)) aggregation was monitored at 50° C. Porcine somatotropin (1.27 mg/mL (5.76E-5 M)) aggregation was monitored at 60° C. in the presence of PEG 8000 (20 mg/mL) which was included to enhance the protein association process through a simple exclusion volume effect. HLF (0.4 mg/mL (5.23E-6 M)) aggregation was monitored at 43° C. in the presence of 1.27E-4 M DTT. Citrate synthase (96 μg/mL (9.80E-7 M)) aggregation was monitored at45° C. ADH (1 mg/mL (7.14E-6 M)) was monitored at 37° C. following the addition of 7.76E-5 M Cu(OP)2. Aggregation was compared to protein in the absence of the particular dipolar compound. After stirring, experiments were initiated by the addition of proteins followed by stressing reagents to 1 cm pathlength cuvettes employing a seven-position thermostatted sample holder that was cycled at 30-second intervals. Alternatively, a microtiter plate reader was employed under the same conditions in a 96 well format.
(§6) All optical density (OD)360nm versus time results were exported into Excel [Microsoft] for data analysis.

[2] = target: human acidic fibroblast growth factor (FGF-1) (Homo sapiens, UniProt P05230); assay: FGF-1 thermal aggregation (turbidity at 360 nm); conditions: for inhibition index: FGF-1 50 μg/mL, 50° C., standard deviation in parenthesis
Description: as §1, §3, §4, §5
All optical density (OD)360nm versus time results were exported into Excel [Microsoft] for data analysis. […] The maximum rate of change in OD versus time plots (r) was used to determine the rate of the reaction from the slope at this point.

[3] = target: T2, chicken egg white lysozyme (Gallus gallus, UniProt P00698); assay: Lysozyme aggregation (turbidity at 360 nm) induced by DTT; conditions: for inhibition index: Lysozyme 0.4 mg/mL, 25° C., DTT, compound 1,000×, standard deviation in parenthesis
T2 construct: chicken egg white lysozyme [Sigma]; purchased Sigma; host or cells: egg white
Description: as §1, §2, §3, §4, §5, §6

[4] = target: T3, Bovine insulin (Bos taurus, UniProt P01317); assay: Insulin aggregation (turbidity at 360 nm) induced by DTT; conditions: for inhibition index: Insulin 0.25 mg/mL, 25° C., DTT, compound 100×, standard deviation in parenthesis
T3 construct: purchased Sigma, St. Louis, Mo., USA
Description: as §1, §2, §3, §4, §5, §6

[5] = target: T4, human apolactoferrin (HLF) (Homo sapiens, UniProt P02788); assay: HLF aggregation (turbidity at 360 nm) induced by DTT; conditions: for inhibition index: HLF 0.4 mg/mL, 43° C., DTT, head 10,000×, standard deviation in parenthesis
T4 construct: purchased Sigma
Description: as §1, §2, §3, §4, §5, §6

T4 sequence (P02788 20-710): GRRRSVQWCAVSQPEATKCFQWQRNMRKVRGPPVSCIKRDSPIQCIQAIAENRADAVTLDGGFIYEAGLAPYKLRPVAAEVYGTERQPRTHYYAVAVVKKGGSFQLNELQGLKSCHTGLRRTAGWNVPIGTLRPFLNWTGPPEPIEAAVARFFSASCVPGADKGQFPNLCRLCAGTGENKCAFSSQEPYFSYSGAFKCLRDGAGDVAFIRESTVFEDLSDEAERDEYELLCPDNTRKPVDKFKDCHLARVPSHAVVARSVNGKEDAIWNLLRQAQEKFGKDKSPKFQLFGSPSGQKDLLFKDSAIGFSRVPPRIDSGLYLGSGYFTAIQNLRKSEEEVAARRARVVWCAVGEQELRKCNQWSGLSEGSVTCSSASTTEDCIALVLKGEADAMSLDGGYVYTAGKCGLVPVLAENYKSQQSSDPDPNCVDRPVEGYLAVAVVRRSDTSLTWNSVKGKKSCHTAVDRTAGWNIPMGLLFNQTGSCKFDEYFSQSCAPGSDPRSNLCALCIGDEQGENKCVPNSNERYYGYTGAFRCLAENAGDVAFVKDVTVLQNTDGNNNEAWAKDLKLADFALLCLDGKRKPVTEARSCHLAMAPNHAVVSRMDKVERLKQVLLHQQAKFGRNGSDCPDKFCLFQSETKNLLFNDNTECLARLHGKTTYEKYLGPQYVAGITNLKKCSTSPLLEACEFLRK
T3 sequence (P01317 25-54 limits assumed): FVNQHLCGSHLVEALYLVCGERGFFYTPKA
T3 sequence (P01317 85-105 limits assumed): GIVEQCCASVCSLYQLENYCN
Chain of human acidic fibroblast growth factor (FGF-1) (P05230 whole entry): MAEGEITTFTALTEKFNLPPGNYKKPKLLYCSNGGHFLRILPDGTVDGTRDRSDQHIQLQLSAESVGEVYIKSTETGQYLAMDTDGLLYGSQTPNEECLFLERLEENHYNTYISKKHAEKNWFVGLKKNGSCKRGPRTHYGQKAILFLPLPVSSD
T2 sequence (P00698 19-147): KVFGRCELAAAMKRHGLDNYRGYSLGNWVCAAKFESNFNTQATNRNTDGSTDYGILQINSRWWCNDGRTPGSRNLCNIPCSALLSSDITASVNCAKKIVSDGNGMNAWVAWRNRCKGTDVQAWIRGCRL

Compound | inhibition index ([1]; compound 100X) | inhibition index ([1]; compound 2,000X) | inhibition index ([2]; compound 1,000×) | inhibition index ([2]; compound 10,000×) | inhibition index [3] | inhibition index [4] | inhibition index ([5]; second HLF column) | inhibition of insulin aggregation, in words [4] | inhibition of lactoferrin (HLF) aggregation, in words [5] | inhibition of lysozyme aggregation, in words [3] | inhibition of FGF-1 aggregation, in words ([2]; text and FIG. 2 (1,000X to 50,000X)) | inhibition index ([5]; first HLF column)
NCCCN [1,3-diaminopropane] | 0.6 (0.0) | 1.7 (0.2) | 2.2 (0.3) | 3.5 (2.3) | 2.7 (0.4) | 1.3 (0.3) | 31.5 (12.0) | – | – | – | – | –
NCCCCN [1,4-diaminobutane] | 0.6 (0.1) | 1.4 (0.4) | 2.5 (1.3) | 33.7 (6.6) | 1.6 (0.2) | 1.4 (0.4) | 34.5 (13.0) | – | – | – | – | –
NCCCCCN [1,5-diaminopentane] | 0.8 (0.3) | 1.7 (0.4) | 3.3 (0.7) | 46.5 (19.8) | 1.3 (0.3) | 1.5 (0.6) | 28.8 (13.3) | – | – | – | – | –
NCCCCCCN [1,6-diaminohexane] | 0.6 (0.1) | 1.9 (0.2) | 1.6 (0.6) | 27.0 (9.8) | 1.0 (0.1) | 1.5 (0.3) | 18.0 (4.9) | – | – | – | – | –
NCCCCCCCN [1,7-diaminoheptane] | 0.7 (0.0) | 1.6( 0.7) | 2.0 (0.7) | 6.2 (2.4) | 1.0 (0.3) | 2.7 (1.0) | 11.0 (2.1) | weak inhibitions | – | – | – | –
NCCCC(=O)O [4-aminobuytrate, 4-aminobutyric acid] | 0.3 (0.0) | 1.1 (0.2) | 1.5 (0.0) | 1.4 (0.3) | 1.4 (0.4) | 1.2 (0.3) | 9.5 (1.9) | – | – | – | – | –
NCCCCC(=O)O [5-aminovalerate, 5-aminovaleric acid] | 0.4 (0.0) | 0.7 (0.1) | 1.1 (0.2) | 2.2 (1.4) | 1.5 (0.4) | 1.2 (0.1) | 8.4 (2.6) | – | – | – | – | –
NCCCCCC(=O)O [6-aminocaproate, 6-aminocaproic acid] | 0.5 (0.1) | 1.2 (0.2) | 2.2 (0.3) | 2.4 (0.5) | 0.8 (0.2) | 1.4 (0.2) | 7.9 (3.4) | – | – | – | – | –
NCCCCCCC(=O)O [7-aminoheptanoate, 7-aminoheptanoic acid] | 0.4 (0.0) | 1.6 (0.2) | 0.9 (0.4) | 1.3 (0.1) | 1.3 (0.2) | 2.4 (1.0) | 4.7 (0.7) | weak inhibitions | – | – | – | –
O=C(O)CCCCC(=O)O [adipate, adipic acid] | 0.9 (0.1) | 3.9 (0.7) | 3.0 (0.7) | 5.0 (3.3) | 1.4 (0.8) | 1.2 (0.7) | 113.0 | – | – | – | – | –
NCCC(=O)O [beta-alanine] | 0.4 (0.1) | 0.8 (0.1) | 1.1 (0.2) | 1.5 (0.5) | 1.1 (0.3) | 1.1 (0.1) | 24.2 (4.4) | – | effective inhibitors | – | – | –
NCCN [ethylenediamine] | 0.7 (0.0) | 1.3 (0.1) | 2.2 (0.7) | 3.3 (1.3) | 70.2 (6.8) | 0.9 (0.3) | 44.5 (13.9) | – | – | effective inhibitors; also recorded: strongly inhibited | – | –
O=C(O)CCCC(=O)O [glutarate, glutaric acid] | 0.9 (0.1) | 3.1 (0.7) | 3.0 (0.9) | 10.8 (8.4) | 1.2 (0.3) | 1.0 (0.2) | 49.7 (28.9) | – | – | – | – | –
NCC(=O)O [glycine] | 0.4 (0.1) | 1.2 (0.2) | 1.3 (0.3) | 3.0 (1.7) | 1.0 (0.2) | 1.0 (0.3) | 1.5 (0.1) | – | – | – | – | –
O=C([O-])CC(=O)[O-].[Na+].[Na+] [malonate, sodium malonate] | 0.9 (0.1) | 4.9 (0.5) | 2.2 (0.4) | 36.6 (29.0) | 1.5 (0.4) | 1.2 (0.5) | 1714.1 | – | – | – | – | –
O=C(O)C(=O)O [oxalate, oxalic acid] | 0.8 (0.1) | 1.5 (0.3) | 5.2 (1.5) | 605.5 (89.1) | 1.6 (1.0) | 0.9 (0.6)^3 | 666.9 | – | – | – | effective inhibitors | –
O=C(O)CCCCCC(=O)O [pimelate, pimelic acid] | 0.8 (0.1) | 1.5 (0.4) | 3.1 (1.0) | 12.1 (8.8) | 2.0 (0.7) | 1.4 (0.6) | 78.9 (68.2) | – | – | – | – | –
pentaglycine | 0.7 (0.2) | – | – | – | 0.2 (0.1) | 1.0 (0.2) | 0.5 (0.0) | – | – | – | – | 979.0 (7.5)
